For 90 compounds, melting point results are on record in a melting point compilation (Tetko et al.; mined from patent text by program, amines drawn as free bases though some values may be those of a salt).

What is called melting point is the temperature, or range, at which the solid turns liquid.

Compound `COc1cc(COc2nn(-c3ccccc3)cc2/C=C/C#N)ccc1OCc1nc(-c2ccco2)oc1C` registered a melting point of 177 to 178 °C.

As to `N#CC1=Cc2cc(Br)ccc2OC1`, the melting point is 132 to 133 °C. In turn, `CCCc1ncc(/C=C(\Cc2cccs2)C(=O)O)n1Cc1ccccc1[N+](=O)[O-]` displayed a melting point of 223 °C. Compound `CNC(=O)c1cccc(NC(=O)Cc2cccc(OCc3ccccc3)c2)c1` returned a melting point of 150 °C. Next, `NS(=O)(=O)c1ccccc1CCCl`: 168 to 171 °C. `CC(C)c1ccc(C(=O)C2=C(O)C(=O)N(c3ccc(OCc4ccccc4)nn3)C2c2ccc(OC(F)(F)F)cc2)cc1` (stereo not given) yielded a melting point of 269 °C. Next, `CN(C)S(=O)(=O)c1ccccc1-c1ccc2c(c1)S(=O)(=O)NC(C1CCCCC1)N2` (stereo not given): 290 to 300 °C.

On to `O=C(O)c1ncccc1OCc1ccc(Cl)cc1`, for which the melting point was determined as 144 °C. Regarding `O=c1ccc2c(-c3cccc(O)c3)nccc2[nH]1`, the melting point was in the range of 297 to 299 °C.

`CCCCOC(=O)c1cccc(I)c1C(=O)NC(C)(C)CS(C)=O` (stereo not given) gave a melting point of 57.5 to 66.3 °C.

In turn, `CCCCC(Cc1ccc(OCCNC(=O)c2ccc(-c3ccc(OC)cc3)cc2)cc1)C(=O)O` (stereo not given) gave a melting point of 166 to 168 °C. Regarding `Cc1nc(-c2ccccc2)cc(-c2cccc([N+](=O)[O-])c2)c1CBr`, the melting point fell in the range of 155 to 157 °C.

In the case of `CCOc1cc(C)c(C(=O)N=C(N)N)cc1S(C)(=O)=O`, the melting point was in the range of 201 to 203 °C. In the case of `Cc1cc(SC2=C(O)CC(CCc3csc(CO)c3)(C(C)C)OC2=O)c(C(C)(C)C)cc1CO` (stereo not given), the melting point is 76 to 80 °C. Next, `Cc1cc(C)c2ncc(NC(=O)c3cc(C(C)(C)C)c(O)c(C(C)(C)C)c3)c(-c3ccccc3Cl)c2c1`: 127 to 129 °C; `Cc1cc(Cl)c(N)c([N+](=O)[O-])c1`: 68.5 to 69.5 °C; `CCc1nnc2c(N(C)C)nc3ccccc3n12`: 155 to 158 °C. Next, `NCCCNC(=O)c1ccc(-c2nn(-c3ccc(C(=O)O)cc3)c3ccccc23)cc1`: 285 to 288 °C; `Brc1ccsc1Cc1c[nH]cn1`: 212 to 214 °C; `COc1cc2c(cc1O)C(O)CN(Cc1cc(OC)c(OC)c(OC)c1)C2` (stereo not given): 62 to 63 °C.

Turning to `COCc1c(C(=O)OC(C)C)ncc2[nH]c3ccc(OCc4ccccc4Cl)cc3c12`, the melting point was in the range of 135 to 141 °C. Next, `Cc1c(O)cccc1C(=O)NC(Cc1ccccc1)C(O)C(=O)N1CSC(C)(C)C1C(=O)NC1CCCc2ccccc21` (stereo not given): 125 to 126 °C; `Cc1nc(N2CCC(NCCC3CC3)C2=O)sc1C(=O)NCc1ccc(F)cc1` (stereo not given): 151 to 152 °C; `c1ccc(OCCSCc2nnc(-c3ccc4cc(CN5CCCCC5)ccc4c3)o2)cc1`: 93 to 94 °C. Then `Cc1cccc(CC(=O)NC(C)C)c1NC(=O)c1cc(C(F)(F)F)nn1-c1ncccc1Cl`, with 206 to 207 °C; and `CC(C)(C)c1ccc(S(=O)(=O)CC(=O)N=C=O)cc1`, with 163 °C. For the compound `c1ccc(Sc2ccc3[nH]ccc3c2)cc1`, the melting point was 97 to 99 °C. Then `CC(C)(C)C(=O)C(C(Cl)C(Cl)(Cl)Cl)n1cncn1` (stereo not given), with 111 to 113 °C; and `N#Cc1sc2cc([N+](=O)[O-])ccc2c1Cl`, with 204 to 205 °C; and `O=C(O)CC1Cc2cccc3cccc1c23` (stereo not given), with 123 °C. Then `CC1CN(c2c(F)cc3c(=O)c(C(=O)O)cn(C4CC4)c3c2Cl)CC1N` (stereo not given), with 231 to 234 °C; and `Clc1ccc(-c2cc(C3CCN(Cc4ccccc4)CC3)n[nH]2)cc1`, with 164 to 167 °C. Then `O=C(O)C=C1SC(=Nc2ccc(Br)c(Br)c2)N(c2ccc(Br)c(Br)c2)C1=O`, with 235 to 237 °C; and `CN1Cc2c(-c3cccs3)ncn2-c2cccc(Cl)c2C1=O`, with 222 to 223 °C; and `Cc1ccc(N(C(=O)CCl)c2c(F)cc(F)cc2Cl)cc1`, with 137 to 140 °C. Turning to `Cn1c(C(F)(F)F)cc(=O)n(-c2cc(OCC(F)(F)F)c(Cl)cc2F)c1=O`, the melting point fell in the range of 136 to 138 °C. Then `O=C(O)COc1ccc(C(=O)c2ccc(Cl)cc2)c(Cl)c1Cl`, with 196 to 198 °C; and `O=C(O)CNC(=O)c1cc(Br)nc(Br)c1`, with 151 to 152 °C; and `O=C(NCc1ccccc1)Nc1nnc(C(=O)OCc2ccccc2)s1`, with 188 to 192 °C. `COC(=O)c1ccc(S(C)(=O)=O)c(CC#N)c1Cl` yielded a melting point of 151 to 155 °C. As to `CCOC(=O)Nc1cccc(C)c1C(=O)OCC`, the melting point lay within 38.5 to 39.5 °C. Take `O=C(Nc1ccc(OCCN2CCOCC2)c2ccccc12)c1ccc2snnc2c1`: the melting point lay within 188 to 190 °C. Then `CCCC(=O)C(=CNc1ccc(O)cc1OC)C(=O)OCC`, with 140 to 142 °C; and `CCN1CCN(Cc2ccc(-c3cc4ncc(C#N)c(Nc5cc(OC)c(Cl)cc5Cl)c4cc3OC)cc2)CC1`, with 126 to 130 °C. Then `CC(=O)Oc1ccccc1C(=O)Oc1nc[nH]c1C(N)=O`, with 143 to 145 °C.

For the compound `COC(=O)c1ccccc1SCOc1ccc(Cl)cc1Cl`, the melting point is 122 to 124 °C. As for `O=S1(=O)NCN(CCF)c2ccc(I)cc21`, the melting point was 156 to 158 °C. Then `Cc1nnc(Sc2ncnc3c(C)csc23)s1`, with 144 to 147 °C; and `CCOC(=O)c1cnc2ccnn2c1Cl`, with 93 to 95 °C; and `O=P12CN3CN(C1)S(=O)(=O)N(C3)C2`, with 245 to 246 °C.

For `Cc1cc2c(cc1C)C1(CO2)C(=O)Nc2ccccc21` (stereo not given), the melting point was 206 to 207 °C.

`CN(CCOc1ccc(C(N)=O)cc1)CCc1ccc(N)cc1` returned a melting point of 110 to 112 °C.

In turn, `CN(c1cc(OC(F)(F)F)cc2cc(C3=NCC(CN4CCOCC4)S3)[nH]c12)S(=O)(=O)c1cccs1` (stereo not given) had a melting point of 165 to 166 °C.

As to `C1=C(CCc2ccco2)CCN(Cc2c[nH]c3ncccc23)C1`, the melting point came to 105 °C. Next, `COc1ccc2cc(-c3cc4ccccc4o3)ccc2c1`: 194 to 195 °C.

`C/C(=C(\C#N)C(N)=S)N1CC[C@@H]2CCCC[C@H]2C1` (relative stereo) came in with a melting point of 173 to 175 °C.

For the compound `O=c1ccc(Br)cn1CC1(O)CCN(Cc2ccccc2)CC1`, the melting point was in the range of 146 to 148 °C. `COc1cccc2c1CNC2`: the melting point lay within 58.5 to 60 °C. Next, `CN1C2CCC1CC(NC(=O)c1cccc3oc(-c4ccccc4)nc13)C2` (stereo not given): 149 to 151 °C. As for `Cc1oc(-c2ccccc2)nc1CCOc1ccc(CC2SC(=O)NC2=O)cn1` (stereo not given), the melting point lay in the range of 191 to 192 °C.

Turning to `COC(=O)C=CC=CCSc1ccc(N(C)C)cc1`, the melting point lay within 68 to 70 °C. Then `CCOCCn1cc(C2CCN(CCOc3ccc(C(=O)O)cc3)CC2)c2ccccc21`, with 85 °C. Turning to `O=C(O)c1ccccc1C(=O)N1CC2CCC(C1)O2`, the melting point was 149 to 150 °C.

As for `Cc1ccc(C(=O)N(C)C)cc1-c1nc(NCCN(C)C)nc2c1CNC(=O)N2c1c(F)cccc1F`, the melting point lay in the range of 138 to 142 °C. `Cc1cc(Cl)ccc1OCC(=O)N1CCSC1C(=O)O` (stereo not given): the melting point is 147 to 148 °C. In the case of `COc1ccc(CCc2ccncc2)c2cc(C#N)nn12`, the melting point was in the range of 191 to 192 °C. Next, `O=C(Nc1c(OCCN(Cc2ccccc2)C(=O)C(F)(F)F)cccc1[N+](=O)[O-])C(F)(F)F`: 114 to 115 °C.

As to `COCCCCC1(O)C2=NCCCN2c2ccccc21` (stereo not given), the melting point lay in the range of 128 to 139 °C. For the compound `N#Cc1nc(F)c(F)c(F)c1Cl`, the melting point is 41.5 to 43 °C. Then `CCOC(=O)C1=C(COC(C)=O)Nc2nc(N)nc(N)c2C1c1cccc([N+](=O)[O-])c1` (stereo not given), with 219 °C. Compound `C#CCN(C)Cc1ccc([N+](=O)[O-])cc1` showed a melting point of 47 to 49 °C. Next, `CC(CCCC(=O)CCCC(C)(C(=O)O)c1ccccc1)(C(=O)O)c1ccccc1` (stereo not given): 44 to 46 °C. For the compound `N#Cc1c(N2CCc3ccccc3CC2)nc2n(c1=O)CCC2`, the melting point is 184 to 190 °C. As to `CCc1cc2c(cc1OC)C(CN1CCC(c3noc4cc(F)ccc34)CC1)=C2`, the melting point was 92 to 97 °C. Compound `C=C1CC2C(=CCC3(C)C2CC(C)C3(OC(C)=O)C(C)=O)C2(C)CCC(=O)C=C12` (stereo not given) displayed a melting point of 197 to 198 °C. `COc1ccccc1NC1CN(C(c2ccccc2)c2ccccc2)C1` showed a melting point of 75 to 77 °C. Then `N#Cc1cccc(-n2ccc3cc(Cl)ccc32)c1`, with 120 to 122 °C. Next, `O=c1[nH]c2ccc(F)cc2c(=O)n1CCCN1CC=C(c2ccc(Cl)cc2)CC1`: 192 to 193 °C; `CCOC(=O)c1ccc(COCc2csc3nc(C(=O)NCc4ccccc4)[nH]c(=O)c23)cc1`: 229 °C. Next, `C1=CN(Cc2ccccc2)CCC1c1cc2ccccc2o1` (stereo not given): 139 to 140 °C. Take `CCOC(=O)C1=C(C)Nc2ncnn2C1C` (stereo not given): the melting point was in the range of 155 to 157 °C.

Consider `N#Cc1cnc2c(oc3ccccc32)c1Nc1ccc(Cl)cc1F`, for which the melting point is 259 to 261 °C.

As to `COc1ccc(C(=O)CO)cc1`, the melting point is 101 to 103 °C. `Cc1c(F)c(N2CCN(C)CC2)c(C)c2c1c(=O)c(C(=O)O)cn2C1CC1` returned a melting point of 205 to 206 °C. The compound `CC(=O)N1CCN(Cc2cnc(-c3cc4cccc(N(C)S(=O)(=O)c5cccs5)c4[nH]3)s2)CC1` yielded a melting point of 177 to 178 °C. Then `O=[N+]([O-])c1ccc(NCc2ccccc2)c([N+](=O)[O-])c1`, with 106 °C; and `CO[C@@H]1C=C2C=C3C(=C(C)C(=O)N3C)C[C@]2(C)[C@@H](C)[C@H]1O`, with 165 to 170 °C. In the case of `CC(=O)c1ccc(C(C)(c2ccc(C(C)=O)cc2)c2ccc(C(C)=O)cc2)cc1`, the melting point worked out at 232 °C. Then `CCCCCc1ccc(-c2ncc(O)cn2)c(F)c1F`, with 104 to 105 °C; and `CCCCn1c(=O)c2c(ncn2S(=O)(=O)c2ccc(N(OC(C)=O)C(C)=O)cc2)n(CCCC)c1=O`, with 155 to 157 °C.
